Measured values published in publication PMC3871601, “Potential Cooperations between Odorant-Binding Proteins of the Scarab Beetle Holotrichia oblita Faldermann (Coleoptera: Scarabaeidae)” (PLoS ONE, 2013).
Where two headings read alike, the source gives them in different places.

Legend:
HoblOBP2 = system: HoblOBP2; design: method as in PMID 21852709; conditions: HoblOBP2 alone; ref [13]; cited from earlier work
[1] = system: HoblOBP1 and HoblOBP2 mixtures; experiment: Competitive binding assay with binary protein mixture OBP1-OBP2; design: species or system Holotrichia oblita; conditions: HoblOBP1 and HoblOBP2 equimolar mixture and 1-NPN 2 µM, ligand 4–40 µM; compared to either protein alone
Procedure: (§1) It is well known that the concentration of OBPs (also likely CSPs) in the sensillum lymph of the insect is extremely high (reportedly 10 mM). A hypothesis has been proposed that OBPs (or CSPs) homodimers or heterodimers might form. Thus, all binary potential intersections with four HoblOBPs and two HoblCSPs were tested in competitive binding assays to determine the existence of dimers. These experiments assumed that the protein was 100% active, a stoichiometric ratio between the protein and ligand was 1:1 at saturation and the two proteins were present in equimolar amounts. The binding curves and Scatchard plots of OBP3 and OBP4 mixture or CSP1 and CSP2 mixture were consistent with the functions of the individual proteins. However, the binding curve of the OBP2 and OBP4 mixture or OBP1 and OBP2 mixture presented a different tendency from those obtained with the individual proteins. […] Thus, we speculated that the decreased binding velocity was the main cause underlying this phenomenon. […] Such binding of the OBP2 and OBP4 mixture or OBP1 and OBP2 mixture in H. oblita was consistent with the OBP1 and OBP4 mixture in A. gambiae. In particular, some experiments also indicated interactions between OBP1 and OBP4 in A. gambiae. Thus, the hypothesis on a potential interaction between OBP2 and OBP4 (or OBP1 and OBP2) in H. oblita was proposed.
(§2) Figure 8 Competitive binding curves of representative ligands to binary protein mixtures OBP2-OBP4 and OBP1-OBP2 in H. oblita. The chemical structures of the ligands are shown on the right. A mixture of the proteins (equimolar amounts) and 1-NPN with both concentration of 2 µM in Tris-buffer was titrated with 1 mM solution of each competing ligand to final concentrations of 4–40 µM.
(§3) The 2 µM protein solution was dissolved in 50 mM Tris-HCl buffer with pH 7.4, and the ligands were dissolved in chromatographically pure methanol as a 1 mM stock solution. 1-NPN was dissolved in chromatographically pure methanol as a 1 mM stock solution. The protein solution was titrated to measure the protein’s affinity for the probe by adding aliquots of 1-NPN stock solution to final concentrations of 2 to 20µM.

HoblOBP3 [2] = biological target: T1, HoblOBP3 (Holotrichia oblita, UniProt G9BWQ7); experiment: biochemical; assay type: binding
T1 sequence (G9BWQ7 entry or part of it): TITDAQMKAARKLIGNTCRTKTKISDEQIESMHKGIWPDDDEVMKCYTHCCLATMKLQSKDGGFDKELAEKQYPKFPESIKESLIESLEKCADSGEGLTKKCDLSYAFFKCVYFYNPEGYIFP
Procedure: (§4) N-phenyl-1-naphthylamine (1-NPN) was selected as a probe to measure the affinity of the 1-NPN fluorescent ligand to proteins. A 1-cm light path quartz cuvette was used, and the fluorescence spectra were recorded on a Lengguang 970 CRT spectrofluorimeter (Shanghai Jingmi, China) at room temperature in a right angle configuration. The parameter selection was such that the slit widths for both excitation and emission were 10 nm. 1-NPN was excited at 337 nm and the emission spectra were recorded between 350 and 550 nm. Spectra were recorded using high-speed scanning.
(§5) The 2 µM protein solution was dissolved in 50 mM Tris-HCl buffer with pH 7.4, and the ligands were dissolved in chromatographically pure methanol as a 1 mM stock solution. 1-NPN was dissolved in chromatographically pure methanol as a 1 mM stock solution.
(§6) To determine the dissociation constants, the intensity values corresponding to the maximum fluorescence emission were plotted against free ligand concentrations. Assuming that the protein was 100% active and that the stoichiometric ratio between the protein and ligand was 1:1 at saturation, the bound ligand was determined from the fluorescence intensity values. The curves were then linearized using Scatchard plots. The K1-NPN values were estimated using GraphPad Prism 5 Software by nonlinear regression for a unique binding site. The dissociation constants of the competitors (Ki) were calculated from the corresponding IC50 values using the following equation: Ki = [IC50]/1+[1-NPN]/K1-NPN. […] [1-NPN] represented the free concentration of 1-NPN, and K1-NPN represented the dissociation constant of the complex protein/1-NPN [76].

HoblOBP4 [3] = biological target: T2, HoblOBP4 (Holotrichia oblita, UniProt G9BWQ8); experiment: biochemical; assay type: binding; conditions: for Affinity (in words): HoblOBP4 alone
T2 sequence (G9BWQ8 entry or part of it): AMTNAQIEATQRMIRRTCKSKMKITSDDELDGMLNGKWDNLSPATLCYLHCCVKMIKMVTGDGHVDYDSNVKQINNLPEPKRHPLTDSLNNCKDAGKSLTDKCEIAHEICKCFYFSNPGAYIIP
Procedure: as §4, §5, §6

HoblOBP1 = system: HoblOBP1; design: method as in PMID 21852709; conditions: HoblOBP1 alone; ref [13]; cited from earlier work
HoblOBP3 [4] = biological target: T1, HoblOBP3; experiment: Binding curve of 1-NPN and Scatchard plot, HoblOBP3; conditions: HoblOBP3 2 µM in Tris-buffer, 1-NPN 2–20 µM; read-out: Dissociation constant of 1-NPN
Procedure: as §4, with “scanning. Several types of compounds purchased from Sigma-Aldrich (Chemie Gmbh, Steinheim, Germany) were identified in the binding assays, and their purities were > 97% (Table 1). […]” for “scanning.”
(§7) To determine the dissociation constants, the intensity values corresponding to the maximum fluorescence emission were plotted against free ligand concentrations. Assuming that the protein was 100% active and that the stoichiometric ratio between the protein and ligand was 1:1 at saturation, the bound ligand was determined from the fluorescence intensity values. […] The dissociation constants of the competitors (Ki) were calculated from the corresponding IC50 values using the following equation: Ki = [IC50]/1+[1-NPN]/K1-NPN. […]

HoblOBP4 [5] = biological target: T2, HoblOBP4; experiment: Binding curve of 1-NPN and Scatchard plot, HoblOBP4; conditions: HoblOBP4 2 µM in Tris-buffer, 1-NPN 2–20 µM; read-out: Dissociation constant of 1-NPN
Procedure: as §4, with “scanning. Several types of compounds purchased from Sigma-Aldrich (Chemie Gmbh, Steinheim, Germany) were identified in the binding assays, and their purities were > 97% (Table 1). […]” for “scanning.”
as §7

[6] = system: HoblOBP2 and HoblOBP4 mixtures; experiment: Competitive binding assay with binary protein mixture OBP2-OBP4; design: species or system Holotrichia oblita; conditions: HoblOBP2 and HoblOBP4 equimolar mixture and 1-NPN 2 µM, ligand 4–40 µM
Procedure: as §1, §2, §3

[7] = HoblOBP3, dash = IC50 exceeded 50 µM, read-out: IC50 (dash)
[8] = HoblOBP3, dash = ligand whose IC50 exceeded 50 µM, Ki not given, read-out: Ki (dash)
[9] = pH 7.4, HoblOBP3, at the ligand concentration 24 µM, protein and 1-NPN both 2 µM, read-out: Int (fluorescence intensity as percent of the initial fluorescence)
[10] = HoblOBP4, dash = IC50 exceeded 50 µM, read-out: IC50 (dash)
[11] = HoblOBP4, dash = ligand whose IC50 exceeded 50 µM, Ki not given, read-out: Ki (dash)
[12] = pH 7.4, HoblOBP4, at the ligand concentration 24 µM, protein and 1-NPN both 2 µM, read-out: Int (fluorescence intensity as percent of the initial fluorescence)
[13] = pH 7.4, read-out: Int (fluorescence intensity as percent of the initial fluorescence)

| SMILES | Affinity (in words) (HoblOBP2) | Affinity (in words) [1] | IC50 (HoblOBP3 [2]; [7]) | Ki (HoblOBP3 [2]; [8]) | activity at 24 µM (HoblOBP3 [2]; [9]) | IC50 (HoblOBP4 [3]; [10]) | Ki (HoblOBP4 [3]; [11]) | activity at 24 µM (HoblOBP4 [3]; [12]) | Affinity (in words) (HoblOBP1) | Kd (HoblOBP3 [4]) | Kd (HoblOBP4 [5]) | IC50 (HoblOBP3 [2]) | Ki (HoblOBP3 [2]) | activity at 24 µM (HoblOBP3 [2]; [13]) | IC50 (HoblOBP4 [3]) | Ki (HoblOBP4 [3]) | Affinity (in words) (HoblOBP4 [3]) | activity at 24 µM (HoblOBP4 [3]; [13]) | Affinity (in words) [6] |
| --- | --- | --- | --- | --- | --- | --- | --- | --- | --- | --- | --- | --- | --- | --- | --- | --- | --- | --- | --- |
| CCCCCCC=O [1-Heptanal] | low-afﬁnity or non-afﬁnity | enhanced affinity | > 50 µM | > 50 µM | 65% | > 50 µM | > 50 µM | 64% | low-afﬁnity or non-afﬁnity |  |  |  |  |  |  |  |  |  |  |
| c1ccc(Nc2cccc3ccccc23)cc1 [1-NPN, N-phenyl-1-naphthylamine] |  |  |  |  |  |  |  |  |  | 1.88 µM | 2.78 µM |  |  |  |  |  |  |  |  |
| O=C/C=C/c1ccccc1 [Cinnamaldehyde] | low-afﬁnity or non-afﬁnity |  |  |  |  |  |  |  |  |  |  | 46 µM | 30 µM | 64% | 9 µM | 6.6 µM | good afﬁnity | 36% | good affinity |
| C=CCc1ccc(O)c(OC)c1 [Eugenol] | low-afﬁnity or non-afﬁnity |  |  |  |  |  |  |  |  |  |  | > 50 µM | > 50 µM | 97% | > 50 µM | > 50 µM | no afﬁnity | 57% | good affinity |
| C=C[C@](C)(O)CCC=C(C)C [R-(-)-Linalool] | low-afﬁnity or non-afﬁnity | enhanced affinity |  |  |  |  |  |  | low-afﬁnity or non-afﬁnity |  |  | > 50 µM | > 50 µM | 73% | 20 µM | 14.7 µM |  | 46% |  |
| CC1=C(/C=C/C(C)=C/C=C/C(C)=C/CO)C(C)(C)CCC1 [Retinol] | low-afﬁnity or non-afﬁnity |  | > 50 µM | > 50 µM |  | > 50 µM | > 50 µM |  |  |  |  |  |  |  |  |  | no afﬁnity |  | good affinity |
| CCC/C=C/CO [trans-2-Hexenol] | low-afﬁnity or non-afﬁnity | enhanced affinity |  |  | 82% |  |  | 51% | low-afﬁnity or non-afﬁnity |  |  | > 50 µM | > 50 µM |  | 24 µM | 17.7 µM |  |  |  |
| CC1=CC[C@@H](C(C)(C)O)CC1 [α-Terpineol] | low-afﬁnity or non-afﬁnity | enhanced affinity |  |  |  |  |  |  | low-afﬁnity or non-afﬁnity |  |  | > 50 µM | > 50 µM | 71% | 35.5 µM | 26.1 µM |  | 53% |  |
| CC(=O)/C=C/C1=C(C)CCCC1(C)C [β-Ionone] | good afﬁnity |  |  |  |  |  |  |  |  |  |  | 8 µM | 5.2 µM | 36% | 15 µM | 11 µM | good afﬁnity | 42% | enhanced affinity |
